Like-named read-outs stand apart in the source and are kept apart here. Where a SMILES comes first, the peptide text is derived from it.
Columns and labels:
[1] = biological target: T1, ACE in thoracic aorta tissue (Rattus norvegicus, UniProt P47820); experiment: Ex vivo ACE inhibition assay: Ang II production in endothelium-denuded thoracic aorta rings (UPLC-MS)
T1 sequence (P47820 36-1313): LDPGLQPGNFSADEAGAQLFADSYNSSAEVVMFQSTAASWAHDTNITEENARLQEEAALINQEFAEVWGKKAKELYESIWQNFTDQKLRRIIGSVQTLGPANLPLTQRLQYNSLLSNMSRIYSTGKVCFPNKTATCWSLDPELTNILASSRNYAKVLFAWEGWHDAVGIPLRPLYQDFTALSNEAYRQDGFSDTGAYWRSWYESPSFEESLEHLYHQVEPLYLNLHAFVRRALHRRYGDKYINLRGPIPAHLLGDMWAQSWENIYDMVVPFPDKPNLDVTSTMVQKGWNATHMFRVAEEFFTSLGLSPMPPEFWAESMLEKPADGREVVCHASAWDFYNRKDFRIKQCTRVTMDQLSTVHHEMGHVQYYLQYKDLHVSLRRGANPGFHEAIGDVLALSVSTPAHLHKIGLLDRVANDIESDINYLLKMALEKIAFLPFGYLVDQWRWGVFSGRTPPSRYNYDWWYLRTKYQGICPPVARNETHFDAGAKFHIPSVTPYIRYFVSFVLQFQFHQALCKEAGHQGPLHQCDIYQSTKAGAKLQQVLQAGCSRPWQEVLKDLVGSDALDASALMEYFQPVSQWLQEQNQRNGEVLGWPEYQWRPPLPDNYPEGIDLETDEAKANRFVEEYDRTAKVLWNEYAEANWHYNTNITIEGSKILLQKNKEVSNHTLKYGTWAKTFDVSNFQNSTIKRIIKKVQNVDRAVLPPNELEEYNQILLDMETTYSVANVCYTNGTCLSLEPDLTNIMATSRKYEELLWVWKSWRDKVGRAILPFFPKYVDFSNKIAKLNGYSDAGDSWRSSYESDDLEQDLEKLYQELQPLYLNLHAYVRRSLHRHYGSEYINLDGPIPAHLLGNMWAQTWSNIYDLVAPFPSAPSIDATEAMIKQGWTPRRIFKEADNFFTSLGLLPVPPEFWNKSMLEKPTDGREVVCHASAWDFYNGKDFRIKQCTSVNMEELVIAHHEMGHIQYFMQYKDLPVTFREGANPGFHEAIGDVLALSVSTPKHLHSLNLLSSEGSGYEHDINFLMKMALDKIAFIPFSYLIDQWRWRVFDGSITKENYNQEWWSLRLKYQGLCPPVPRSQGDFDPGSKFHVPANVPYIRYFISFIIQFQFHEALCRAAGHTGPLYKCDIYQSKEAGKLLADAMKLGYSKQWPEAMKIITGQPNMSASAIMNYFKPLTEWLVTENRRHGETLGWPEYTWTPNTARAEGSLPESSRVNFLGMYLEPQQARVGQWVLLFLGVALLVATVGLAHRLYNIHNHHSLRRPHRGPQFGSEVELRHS
Method: Isolation of the thoracic aorta from SHRs (n = 12) and preparation of endothelium-denuded aortic rings was performed as described above. Endothelium was removed to eliminate the influence of endothelium-derived vasodilators.
After 30 min incubation, 1.0 mL of 0.20 µM Ang I was added and the aortic tension was recorded. When vasoconstriction plateaued, Krebs solution in the organ bath was transferred to a test tube and heated at 90°C for 5 min to stop the enzyme reaction; the heat-treated samples were dried under vacuum and frozen at −80°C until UPLC-MS analysis. The aorta rings were used in the BCA assay to express Ang II production as pmol/mg-protein.
Vacuum-dried samples were dissolved in 500 µL acetonitrile/4.0 mM ammonium formate (5∶95 v/v) with 4.0 mM formic acid prior to UPLC-MS analysis, performed at the CREFAS (Collaborated Research Center for Food Functions, Faculty of Agriculture, Shinshu University); Quattro micro API (MS) with an ACQUITY UPLC (Waters Co., USA) was used. Separation was conducted at 35°C using a CHEMCOBOND 5-ODS-W reversed-phase column (4.6×150 mm; ChemcoPlus Scientific Co., Ltd. Kyoto, Japan). […] Mass spectra were acquired in electrospray ionization (ESI) mode using 3500 V capillary voltage, 30 V cone voltage, 350 L/h N2 gas flow (desolvation), 50 L/h N2 gas flow (cone), 100°C source temperature, and 350°C desolvation temperature. […] For each sample, measurements were performed in triplicate; the results were expressed as the mean ± S.E.

[2] = biological target: T2, Ang II-mediated vasoconstriction (Rattus norvegicus, UniProt P47820); experiment: Ex vivo ACE inhibition assay: Ang II-mediated vasoconstriction of endothelium-denuded thoracic aorta rings; set-up: species or system spontaneously hypertensive rats (SHRs); conditions: 0.2 µM Ang I, read-out: EC50 of suppression of Ang II-mediated vasoconstriction
T2 sequence (P47820 36-1313): T1 sequence (P47820 36-1313)

[3] = biological target: T3, ACE (EC 3.4.15.1) purified from the rabbit lungs (Oryctolagus cuniculus, UniProt P12822); experiment: biochemical
T3 construct: ACE (EC 3.4.15.1) purified from the rabbit lungs; purchased Sigma-Aldrich Japan K.K; host or cells: rabbit lung (tissue-purified)
T3 sequence (P12822 34-1310): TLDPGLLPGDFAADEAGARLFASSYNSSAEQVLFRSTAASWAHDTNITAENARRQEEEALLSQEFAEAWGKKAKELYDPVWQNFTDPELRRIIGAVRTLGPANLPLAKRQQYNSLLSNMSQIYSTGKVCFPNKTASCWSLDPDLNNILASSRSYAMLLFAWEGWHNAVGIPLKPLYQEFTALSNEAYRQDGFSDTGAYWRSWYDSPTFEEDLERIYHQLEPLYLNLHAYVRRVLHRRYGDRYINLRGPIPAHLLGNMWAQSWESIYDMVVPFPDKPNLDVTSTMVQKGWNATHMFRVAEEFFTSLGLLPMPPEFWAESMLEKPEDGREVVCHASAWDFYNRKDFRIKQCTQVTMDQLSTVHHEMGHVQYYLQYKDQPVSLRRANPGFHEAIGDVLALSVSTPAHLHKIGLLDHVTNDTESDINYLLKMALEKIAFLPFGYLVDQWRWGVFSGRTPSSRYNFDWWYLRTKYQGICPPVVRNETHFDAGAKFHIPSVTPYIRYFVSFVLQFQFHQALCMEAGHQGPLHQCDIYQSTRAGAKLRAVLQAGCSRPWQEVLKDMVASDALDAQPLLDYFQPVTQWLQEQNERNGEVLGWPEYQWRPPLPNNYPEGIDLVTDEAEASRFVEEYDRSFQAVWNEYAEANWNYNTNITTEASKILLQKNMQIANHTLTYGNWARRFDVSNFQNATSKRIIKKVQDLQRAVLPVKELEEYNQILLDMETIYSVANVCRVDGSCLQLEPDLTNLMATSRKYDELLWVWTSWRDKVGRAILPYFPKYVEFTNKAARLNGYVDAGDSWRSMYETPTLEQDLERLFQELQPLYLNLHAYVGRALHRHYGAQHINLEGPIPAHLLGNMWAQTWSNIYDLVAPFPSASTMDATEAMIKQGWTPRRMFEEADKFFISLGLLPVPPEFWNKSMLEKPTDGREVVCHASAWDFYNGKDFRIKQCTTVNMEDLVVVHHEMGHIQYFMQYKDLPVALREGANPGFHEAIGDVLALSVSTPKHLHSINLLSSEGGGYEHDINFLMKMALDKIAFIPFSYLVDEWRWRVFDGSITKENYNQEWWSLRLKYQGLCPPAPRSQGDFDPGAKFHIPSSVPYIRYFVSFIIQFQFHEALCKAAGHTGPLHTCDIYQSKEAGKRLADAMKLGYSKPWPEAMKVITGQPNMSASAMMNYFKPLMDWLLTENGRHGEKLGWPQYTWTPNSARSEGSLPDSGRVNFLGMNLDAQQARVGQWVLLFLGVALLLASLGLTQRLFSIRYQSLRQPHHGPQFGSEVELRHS
Excerpt: ACE (EC 3.4.15.1) purified from the rabbit lungs was obtained from Sigma-Aldrich Japan K.K. (Tokyo, Japan). Hippuryl-L-histidyl-L-leucine (Hip-His-Leu) was obtained from the Peptide Institute (Osaka, Japan). Ammonium formate, borate, diethyl ether, ethyl acetate, formate, hydrochloric acid (HCl), HPLC-grade acetonitrile, sodium chloride (NaCl), potassium chloride (KCl), potassium dihydrogen phosphate (KH2PO4), magnesium acetate (Mg(CH3COO)2), magnesium sulfate (MgSO4), Nonidet P-40, sodium hydrogen carbonate (NaHCO3), sucrose, and tris(hydroxymethyl)aminomethane were purchased from Kanto Chemical Co., Inc. (Tokyo, Japan). Trifluoroacetic acid (TFA) was purchased from Watanabe Chemical Industries, Ltd. (Hiroshima, Japan).
The in vitro ACE inhibition assay was performed using the method described previously. […] Then, 100 µL of commercial ACE (6.0 mU) was added, and the mixture was incubated at 37°C for 30 min. The reaction was stopped by 250 µL of 1.0 N HCl. Released hippuric acid (Hip) was extracted with 1.0 mL ethyl acetate and quantified by HPLC according to our previous report.

ACE = system: ACE; set-up: method as in PMID 7673515; conditions: ref [7], [8]; read-out: in vitro ACE-inhibitory activity IC50; cited from earlier work
[4] = system: systolic and diastolic blood pressure; conditions: SHRs; ref [8]; cited from earlier work
[5] = Hip-His-Leu substrate, mean ± S.E., n = 3, read-out: In vitro ACE-inhibitory activity IC50

Row | Compound | IC50 [1] | EC50 [2] | IC50 [3] | IC50 [3, 5] | other results
1 | CC(C)[C@H](NC(=O)[C@@H](N)CC(=O)O)C(=O)N[C@@H](Cc1c[nH]c2ccccc12)C(=O)N[C@@H](Cc1ccc(O)cc1)C(=O)O [DVWY] (H-DVWY-OH) | 70.5 µM | 68.2 µM | 690 ± 40 µM |  | 
2 | C[C@H](NC(=O)[C@H](CC(=O)O)NC(=O)[C@@H](N)Cc1ccccc1)C(=O)N[C@@H](CCCNC(=N)N)C(=O)N[C@H](C(=O)O)[C@@H](C)O [FDART] (H-FDART-OH) | 41.7 µM | 53.6 µM | 1900 ± 100 µM |  | 
3 | NC(=O)CC[C@H](NC(=O)[C@@H](N)Cc1ccccc1)C(=O)O [FQ] | 90.9 µM | 85.1 µM |  | 7400 ± 600 µM | 
4 | CC(C)[C@H](N)C(=O)N[C@@H](C)C(=O)N[C@@H](CCC(=O)O)C(=O)O [VAE] (H-Val-Ala-Glu-OH) |  |  |  | 55900 ± 1900 µM | 
5 | CC(C)[C@H](N)C(=O)N[C@H](C(=O)NCC(=O)O)C(C)C [VVG] (H-Val-Val-Gly-OH) |  |  |  | 39600 ± 5700 µM | 
6 | C[C@@H](O)[C@H](NC(=O)[C@@H](N)Cc1c[nH]c2ccccc12)C(=O)N[C@@H](Cc1ccccc1)C(=O)N[C@@H](CCCNC(=N)N)C(=O)O [WTFR] (H-WTFR-OH) | 5.64 µM | 36.8 µM | 6700 ± 500 µM |  | reduction of Ang II production ([1]; at 10 µM, endothelium-denuded rings, 0.2 µM Ang I): 59%
7 | Val-Tyr [VY] |  |  |  |  | IC50 (ACE): 26 µM; minimum effective BPL dose [4]: 1.0 mg/kg
